Data reported in patent US20260356810A1, “NOVEL PIPERAZINE-BASED SULFONAMIDES AND THEIR USE AS NEUROPROTECTIVE AND/OR NEURORESTORATIVE AGENTS” (GENECODE, priority 2022, published 2026).
Read-outs that look alike come from different tables or passages of the source.

Molecular target: T1, GFRα1-RET (Homo sapiens, UniProt P56159)
T1 construct: expressed in transfected cells; host or cells: MG87 murine fibroblast
Experiment: Luciferase assay: activation of Elk1 signaling in reporter-gene cells expressing GFRα1-RET (MG87 murine fibroblast stably transfected with PathDetect Elk-1, GFRα1, and RET)
Format: cell-based
Experimental: The purpose of this experiment was to evaluate the GFRα1-RET activity of the compounds 001-060 according to the invention.
The compounds were tested for their activating activity of Elk1 signaling using the previously developed reporter-gene-based system in cells expressing GFRα1-RET (MG87 murine fibroblast stably transfected with PathDetect Elk-1, GFRα1, and RET) disclosed in Sidorova, Y. A. et al.: “Persephin signaling through GFRα1: The potential for the treatment of Parkinson's disease.” Molecular and Cellular Neuroscience, July 2010, Vol. 44, pp. 223-232. DOI: 10.1016/j.mcn.2010.03.009. For EC50 determination, a dose-response test was performed using 6 concentrations of each tested compound. Dose-response curves were fitted using the sigmoidal dose-response (variable slope) analysis in GraphPad Prism program (Graph Pad Inc) and EC50 of agonist/activator activity was calculated. Dose-response experiments were all performed in duplicate, two times independently.
The compounds were tested for their activating activity of Elk1 signaling using the same materials and methods than for the compounds according to the invention (Example 2 herein, section “Materials and methods”).

[1] = Table 4, MG87 murine fibroblasts with PathDetect Elk-1, GFRα1, RET, 6 concentrations, duplicate, two times independently, agonist/activator activity, read-out: Luciferase Assay EC50

T1 sequence (P56159 25-429 limits assumed): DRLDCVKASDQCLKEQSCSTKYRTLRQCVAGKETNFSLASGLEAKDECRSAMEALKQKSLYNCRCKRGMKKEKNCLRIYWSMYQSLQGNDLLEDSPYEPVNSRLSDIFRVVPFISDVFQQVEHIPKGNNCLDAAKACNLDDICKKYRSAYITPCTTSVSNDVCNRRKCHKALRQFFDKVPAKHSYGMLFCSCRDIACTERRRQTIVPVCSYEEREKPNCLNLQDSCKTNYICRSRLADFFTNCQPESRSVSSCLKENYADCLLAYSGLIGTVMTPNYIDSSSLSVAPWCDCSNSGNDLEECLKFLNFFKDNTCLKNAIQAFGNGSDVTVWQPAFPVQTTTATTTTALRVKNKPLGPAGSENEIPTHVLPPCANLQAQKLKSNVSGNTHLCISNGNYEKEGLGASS
T1 sequence (P07949 29-1114 partner): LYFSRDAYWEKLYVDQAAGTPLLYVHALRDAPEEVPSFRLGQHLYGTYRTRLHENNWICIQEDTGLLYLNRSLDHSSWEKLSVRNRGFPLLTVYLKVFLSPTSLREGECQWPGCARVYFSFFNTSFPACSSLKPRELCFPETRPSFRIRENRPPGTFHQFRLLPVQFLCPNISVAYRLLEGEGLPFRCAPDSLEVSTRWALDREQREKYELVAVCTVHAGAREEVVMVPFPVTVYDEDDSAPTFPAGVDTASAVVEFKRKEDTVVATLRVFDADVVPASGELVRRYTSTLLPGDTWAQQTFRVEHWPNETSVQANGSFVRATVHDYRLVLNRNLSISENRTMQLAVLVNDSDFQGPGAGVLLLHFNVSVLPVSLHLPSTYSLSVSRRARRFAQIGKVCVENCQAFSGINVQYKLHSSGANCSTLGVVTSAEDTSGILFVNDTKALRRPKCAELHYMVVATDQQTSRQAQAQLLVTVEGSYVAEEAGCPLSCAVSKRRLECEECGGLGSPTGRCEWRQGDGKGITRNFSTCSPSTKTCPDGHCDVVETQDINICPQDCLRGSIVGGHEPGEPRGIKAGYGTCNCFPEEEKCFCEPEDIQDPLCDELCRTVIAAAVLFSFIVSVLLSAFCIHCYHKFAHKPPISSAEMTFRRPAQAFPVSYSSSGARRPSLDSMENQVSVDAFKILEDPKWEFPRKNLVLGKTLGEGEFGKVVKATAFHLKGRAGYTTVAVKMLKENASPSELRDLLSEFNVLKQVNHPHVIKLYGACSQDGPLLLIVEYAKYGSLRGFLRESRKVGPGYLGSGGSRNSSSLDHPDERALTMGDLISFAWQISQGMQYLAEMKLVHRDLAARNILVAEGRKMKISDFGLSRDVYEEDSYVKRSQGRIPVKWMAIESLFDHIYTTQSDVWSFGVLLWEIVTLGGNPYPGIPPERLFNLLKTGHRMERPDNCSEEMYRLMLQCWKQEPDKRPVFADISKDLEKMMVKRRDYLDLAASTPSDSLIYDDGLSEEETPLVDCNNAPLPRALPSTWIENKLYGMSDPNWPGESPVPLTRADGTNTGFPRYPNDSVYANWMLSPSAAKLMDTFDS

Row | SMILES | EC50 [1] | further results
1 | CCN(CC)S(=O)(=O)c1cccc(N2CCN(C(=O)c3ccc(F)cc3C(F)(F)F)CC2)c1 [Compound 041, N,N-diethyl-3-[4-[4-fluoro-2-(trifluoromethyl)benzoyl]piperazin-1-yl]benzenesulfonamide] | 10 to 50 µM | 
2 | COc1ccc(S(=O)(=O)N2CCCC(c3ccccc3)C2)cc1N1CCN(C(=O)c2ccc(F)cc2Cl)CC1 (stereo not drawn) [Compound 026, (2-chloro-4-fluoro-phenyl)-[4-[2-methoxy-5-[[3-phenyl-1-piperidyl]sulfonyl]phenyl]piperazin-1-yl]methanone] | 1 to 5 µM | 
3 | COc1ccc(S(=O)(=O)N(C)C2CCCCC2)cc1N1CCN(C(=O)c2ccc(F)cc2Cl)CC1 [Compound 017, 3-[4-(2-chloro-4-fluoro-benzoyl)piperazin-1-yl]-N-cyclohexyl-4-methoxy-N-methyl-benzenesulfonamide] | 1 to 5 µM | 
4 | COc1ccc(S(=O)(=O)NC(C)(C)C)cc1N1CCN(C(=O)c2ccc(F)cc2Cl)CC1 [Compound 032, N-tert-butyl-3-[4-(2-chloro-4-fluoro-benzoyl)piperazin-1-yl]-4-methoxy-benzenesulfonamide] | 1 to 5 µM | 
5 | CCN(CC)S(=O)(=O)c1cnc(Cl)c(N2CCN(C(=O)c3ccc(F)cc3C(F)(F)F)CC2)c1 [Compound 044, 6-chloro-N,N-diethyl-5-[4-[4-fluoro-2-(trifluoromethyl)benzoyl]piperazin-1-yl]pyridine-3-sulfonamide] | 10 to 50 µM | 
6 | CCCN(C)S(=O)(=O)c1ccc(OC)c(N2CCN(C(=O)c3cc(F)c(F)cc3Cl)CC2)c1 [Compound 005, 3-[4-(2-chloro-4,5-difluoro-benzoyl)piperazin-1-yl]-4-methoxy-N-methyl-N-propyl-benzenesulfonamide] | 1 to 5 µM | 
7 | COc1ccc(S(=O)(=O)N2CCC(Cc3ccccc3)CC2)cc1N1CCN(C(=O)c2ncc(F)cc2Cl)CC1 [Compound 008, [4-[5-[(4-benzyl-1-piperidyl)sulfonyl]-2-methoxy-phenyl]piperazin-1-yl]-(3-chloro-5-fluoro-2-pyridyl)methanone] | 5 to 10 µM | 
8 | COc1ccc(S(=O)(=O)N2CCN(Cc3ccccc3)CC2)cc1N1CCN(C(=O)c2ccc(F)cc2Cl)CC1 [Compound 013, [4-[5-(4-benzylpiperazin-1-yl)sulfonyl-2-methoxy-phenyl]piperazin-1-yl]-(2-chloro-4-fluoro-phenyl)methanone] | 5 to 10 µM | 
9 | COc1ccc(S(=O)(=O)N2CCN(CCc3ccc(F)cc3)CC2)cc1N1CCN(C(=O)c2ccc(F)cc2Cl)CC1 [Compound 052, (2-chloro-4-fluoro-phenyl)-[4-[5-[4-[2-(4-fluorophenyl)ethyl]piperazin-1-yl]sulfonyl-2-methoxy-phenyl]piperazin-1-yl]methanone] | 1 to 5 µM | 
10 | COc1ccc(S(=O)(=O)N2CC3CCC2C3)cc1N1CCN(C(=O)c2ccc(F)cc2Cl)CC1 (stereo not drawn) [Compound 036, (2-chloro-4-fluoro-phenyl)-[4-[2-methoxy-5-[[2-azabicyclo[2.2.1]heptan-2-yl]sulfonyl]phenyl]piperazin-1-yl]methanone] | 10 to 50 µM | 
11 | COc1ccc(S(=O)(=O)N2CCC(Cc3ccccc3)CC2)cc1N1CCN(C(=O)c2cc(F)ccc2C(F)(F)F)CC1 [Compound C01, (4-(5-((4-benzylpiperidin-1-yl)sulfonyl)-2-methoxyphenyl)piperazin-1-yl)(5-fluoro-2-(trifluoromethyl)phenyl)methanone, reference compound] |  | EC50 (Table 6, comparison with comparative compounds, values for 001, 009, 010 reported from Table 4, MG87 GFRα1-RET cells, read-out: Luciferase Assay EC50): > 50 µM; EC50 (text statement on Table 6 results, GFRα1-RET luciferase assay, read-out: EC50): > 50 µM
12 | COc1ccc(S(=O)(=O)N(C)Cc2cccc(Cl)c2)cc1N1CCN(C(=O)c2ccc(F)cc2Cl)CC1 [Compound 020, 3-[4-(2-chloro-4-fluoro-benzoyl)piperazin-1-yl]-N-[(3-chlorophenyl)methyl]-4-methoxy-N-methyl-benzenesulfonamide] | 1 to 5 µM | 
13 | COc1ccc(S(=O)(=O)N2CCCC2)cc1N1CCN(C(=O)c2ccc(F)cc2Cl)CC1 [Compound 004, (2-chloro-4-fluoro-phenyl)-[4-(2-methoxy-5-pyrrolidin-1-ylsulfonyl-phenyl)piperazin-1-yl]methanone] | 1 to 5 µM | 

Further lines, with some results ahead:

Row | EC50 [1] | SMILES | further results
14 | 10 to 50 µM | COc1ccc(S(=O)(=O)N2CC3CN(Cc4ccccc4)CC3C2)cc1N1CCN(C(=O)c2ccc(F)cc2Cl)CC1 (stereo not drawn) [Compound 040, [4-[5-[[2-benzyl-1,3,3a,4,6,6a-hexahydropyrrolo[3,4-c]pyrrol-5-yl]sulfonyl]-2-methoxy-phenyl]piperazin-1-yl]-(2-chloro-4-fluoro-phenyl)methanone] | 
15 | 1 to 5 µM | COc1ccc(S(=O)(=O)N2CCCC(Cc3ccccc3)C2)cc1N1CCN(C(=O)c2ccc(F)cc2Cl)CC1 (stereo not drawn) [Compound 027, (2-chloro-4-fluoro-phenyl)-[4-[2-methoxy-5-[[3-benzyl-1-piperidyl]sulfonyl]phenyl]piperazin-1-yl]methanone] | 
16 | 1 to 5 µM | CCCN(C)S(=O)(=O)c1ccc(OC)c(N2CCN(C(=O)c3ccc(F)cc3C(F)F)CC2)c1 [Compound 006, 3-[4-[2-(difluoromethyl)-4-fluoro-benzoyl]piperazin-1-yl]-4-methoxy-N-methyl-N-propyl-benzenesulfonamide] | 
17 | < 1 µM | CN(CC1CC1)S(=O)(=O)c1cc(Cl)c(O)c(N2CCN(C(=O)c3ccc(F)cc3Cl)CC2)c1 [Compound 059, 3-chloro-5-[4-(2-chloro-4-fluoro-benzoyl)piperazin-1-yl]-N-(cyclopropylmethyl)-4-hydroxy-N-methyl-benzenesulfonamide] | 
18 | 5 to 10 µM | COc1ccc(S(=O)(=O)N(C)CC2CCC2)cc1N1CCN(C(=O)c2ccc(F)cc2Cl)CC1 [Compound 014, 3-[4-(2-chloro-4-fluoro-benzoyl)piperazin-1-yl]-N-(cyclobutylmethyl)-4-methoxy-N-methyl-benzenesulfonamide] | 
19 | 1 to 5 µM | COc1ccc(S(=O)(=O)N2CCN(CC(C)c3ccccc3)CC2)cc1N1CCN(C(=O)c2ccc(F)cc2Cl)CC1 (racemic) [Compound 053, (2-chloro-4-fluoro-phenyl)-[4-[2-methoxy-5-[4-[rac-(2R)-2-phenylpropyl]piperazin-1-yl]sulfonyl-phenyl]piperazin-1-yl]methanone] | 
20 | < 1 µM | COc1ccc(S(=O)(=O)N2CCC(=Cc3ccccc3)CC2)cc1N1CCN(C(=O)c2ccc(F)cc2Cl)CC1 [Compound 023, [4-[5-[(4-benzylidene-1-piperidyl)sulfonyl]-2-methoxy-phenyl]piperazin-1-yl]-(2-chloro-4-fluoro-phenyl)methanone] | 
21 | 1 to 5 µM | COc1ccc(S(=O)(=O)N2CCC(Cc3ccccc3)CC2)cc1N1CCN(C(=O)c2ccccc2C(F)F)CC1 [Compound 007, [4-[5-[(4-benzyl-1-piperidyl)sulfonyl]-2-methoxy-phenyl]piperazin-1-yl]-[2-(difluoromethyl)phenyl]methanone] | 
22 | 1 to 5 µM | COc1ccc(S(=O)(=O)N2CCC(C(F)(F)F)CC2)cc1N1CCN(C(=O)c2ccc(F)cc2Cl)CC1 [Compound 031, (2-chloro-4-fluoro-phenyl)-[4-[2-methoxy-5-[[4-(trifluoromethyl)-1-piperidyl]sulfonyl]phenyl]piperazin-1-yl]methanone] | 
23 | 1 to 5 µM | CCCN(C)S(=O)(=O)c1cc2c(c(N3CCN(C(=O)c4ccc(F)cc4C(F)(F)F)CC3)c1)OCC2 [Compound 043, 7-[4-[4-fluoro-2-(trifluoromethyl)benzoyl]piperazin-1-yl]-N-methyl-N-propyl-2,3-dihydrobenzofuran-5-sulfonamide] | 
